# What was measured:
# PNT2 cells = assay: MTS colorimetric viable cell assay, PNT2; assay type: cell-based, human; details: 30 μM, 27h, 492 nm, triplicate
# Outline: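 Cells seeded at 8,000/well, given peptides (14mer to 6mer) at 30 μM final at the outset, triplicate, buffer controls; viable cells by MTS absorbance at 492 nm after 27 h growth. Data as OD mean ± SEM, two-tailed t-test; a 14mer time course on PC3 read at 24 and 48 h.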
# DU145 cells = assay: MTS viable cell assay, DU145 (Epistem); assay type: cell-based, human; details: DU145; 150 μM (highest concentration); 72h
# Outline: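 DU145 or LNCaP cells, 3,000/well in RPMI with 10% FCS, grown 24 h, then peptide added: multiple dose levels, repeated after 24 h, for DU145; single dose level, once, for LNCaP; vehicle 1% PBS. MTS absorbance 492 nm at 72 h after first dose, background-subtracted OD mean±SEM; ANOVA with Dunnett's test.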
# LNCaP cells = assay: MTS viable cell assay, LNCaP (Epistem); assay type: cell-based, human; details: over 72h, single dose level
# Procedure: Further assays on human prostate cancer cells were conducted at a contract research organisation (Epistem, Manchester, UK). LNCaP or DU145 cells seeded at 3,000 cells/well across a 96-well plate were cultured in RPMI (phenol red free), 10% FCS, 1% sodium pyruvate, Pen/strep and L-glutamine for 24h before exposure to peptides, at a single dose level in the case of LNCaPs or multiple dose levels in the case of DU145s. (For dose levels see Results.) Controls received vehicle (1% PBS). For the DU145s peptide administration was repeated after 24h. 72h after the first administration (DU145s) or only administration (LNCaP) total viable cell numbers were measured colorimetrically (MTS) using a CellTiter 96 AQueous One Solution Cell Proliferation Assay (Promega, Southampton, UK), following manufacturer’s instructions. Briefly, the media on the plates was replaced with the CellTiter reagent diluted 1:5 in DMEM. The plates were returned to the incubator for 3 hours before reading absorbance at 492 nm on a FLUORstar OPTIMA (BMG Labtech). CellTiter data are the absorbance minus background values (CellTiter plus DMEM), expressed as (OD mean +/− SEM). Statistical analysis was by ANOVA, Dunnett’s multiple comparisons test.
# [1] = system: compensatory renal growth; details: in words; cited from earlier work
# Procedure: The 14-residue N-terminal Edman sequence EPL001 was determined in the context of a polypeptide candidate of m/z ~7,500 (‘Candidate 7500’) in MALDI-TOF mass spectrometry (MS) and a corresponding band in SDS polyacrylamide gel electrophoresis, implying a chain of ~70 aa for the native molecule. In spite of comprising only 20% of Candidate 7500, EPL001 surpris ...
sequence,measurement,setting,value
"MKPLTGKVKEFNNI [EPL001, 14mer master test peptide …; ovine provenance]",Difference in percentage terms between control and test OD means,PNT2 cells,+3.1%
same,Test mean OD vs control mean,DU145 cells,−16.5%
same,Reduction in test mean OD versus the vehicle control mean,LNCaP cells,-17.0%
same,Effect on rat compensatory renal growth,[1],anti-organotrophic

# From PMC9714824, “Hexapeptides from mammalian inhibitory hormone hunt activate and inactivate nematode reproduction” (PLOS ONE, 2022)
